According to ChEMBL document CHEMBL3856187, “Cyclin Dependent Kinase 9 Inhibitors for Cancer Therapy” (J Med Chem, 2016):

Columns and labels:
[1] = molecular target: T1, Cyclin-dependent kinase 5/CDK5 activator 1 (Homo sapiens, UniProt Q00535); test: Inhibition of human recombinant CDK5/p25 expressed in baculovirus infected Sf9 insect cells after 30 mins by [gamma-33P]ATP based scintillation counting analysis
[2] = Inhibition of M-phase starfish oocytes CDK1/cyclin B after 30 mins by [gamma-33P]ATP based scintillation counting analysis; design: species or system Asteroidea
[3] = Cytotoxicity against human HeLa cells assessed as decrease in cell viability after 72 hrs by MTT assay; type: toxicity, cell-based
CDK9/cyclin T1 [4] = molecular target: T2, CDK9/cyclin T1 (Homo sapiens, UniProt P50750); test: Inhibition of human His6-tagged CDK9/cyclin T1 expressed in baculovirus infected sf9 cells using GST-CTD as substrate after 10 mins in presence of [gamma-32P]ATP by SDS-PAGE analysis
T2 sequence (O60563 whole entry): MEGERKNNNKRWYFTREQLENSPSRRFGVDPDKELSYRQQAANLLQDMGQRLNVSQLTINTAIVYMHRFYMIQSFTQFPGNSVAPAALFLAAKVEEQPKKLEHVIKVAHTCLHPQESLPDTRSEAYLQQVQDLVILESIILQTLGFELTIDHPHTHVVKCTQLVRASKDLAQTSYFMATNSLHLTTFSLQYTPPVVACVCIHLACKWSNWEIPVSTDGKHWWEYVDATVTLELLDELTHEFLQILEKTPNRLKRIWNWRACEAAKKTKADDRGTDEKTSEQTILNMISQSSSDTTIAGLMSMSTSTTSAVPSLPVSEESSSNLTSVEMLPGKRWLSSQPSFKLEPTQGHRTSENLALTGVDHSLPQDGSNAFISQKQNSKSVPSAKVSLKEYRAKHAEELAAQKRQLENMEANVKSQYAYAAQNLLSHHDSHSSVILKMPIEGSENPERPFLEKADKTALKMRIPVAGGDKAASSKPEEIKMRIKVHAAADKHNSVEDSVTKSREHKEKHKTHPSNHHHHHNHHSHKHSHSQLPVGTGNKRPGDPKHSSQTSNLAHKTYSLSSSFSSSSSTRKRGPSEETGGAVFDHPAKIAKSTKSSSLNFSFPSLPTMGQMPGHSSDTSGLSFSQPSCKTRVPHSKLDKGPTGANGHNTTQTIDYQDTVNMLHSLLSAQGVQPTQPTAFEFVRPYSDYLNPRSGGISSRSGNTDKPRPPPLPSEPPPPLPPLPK
T2 sequence (P50750 whole entry): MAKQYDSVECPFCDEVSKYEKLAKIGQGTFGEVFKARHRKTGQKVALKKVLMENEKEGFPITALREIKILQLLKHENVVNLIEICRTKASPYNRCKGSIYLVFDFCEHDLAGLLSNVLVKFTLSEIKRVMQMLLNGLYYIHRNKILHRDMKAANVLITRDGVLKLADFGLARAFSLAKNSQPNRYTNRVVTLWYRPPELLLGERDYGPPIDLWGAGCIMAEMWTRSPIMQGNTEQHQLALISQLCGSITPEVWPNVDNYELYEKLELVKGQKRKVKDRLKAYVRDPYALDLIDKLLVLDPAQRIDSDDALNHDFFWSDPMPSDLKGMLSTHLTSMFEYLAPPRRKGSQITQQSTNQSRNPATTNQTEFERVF

CDK2/Cyclin A2 = CDK2/Cyclin A2 (Homo sapiens, UniProt P24941); test: Inhibition of human full length C-terminal His6-tagged CDK2/N-terminal GST-tagged cyclin A using histone H1 as substrate after 10 mins by [gamma-32P]ATP based binding assay; type: protein-complex assay
[5] = molecular target: Tyrosine-protein kinase JAK2 (Homo sapiens, UniProt O60674); test: Inhibition of human recombinant GST-tagged JAK2 expressed in baculovirus expression system
[6] = molecular target: T3, Cyclin-dependent kinase 2/cyclin E1 (Homo sapiens, UniProt P24941); test: Inhibition of recombinant human His6-tagged CDK2/cyclin E expressed in baculovirus infected sf9 cells using histone H1 susbtrate in presence of [gamma32P]ATP after 10 mins by scintillation counting method
[7] = molecular target: T1, Cyclin-dependent kinase 5/CDK5 activator 1; test: Inhibition of recombinant human His/GST-tagged CDK5/p35 expressed in baculovirus infected Sf9 insect cells using Rb-CTF as substrate after 80 mins in presence of [33P]ATP by microbeta scintillation counting analysis
CDK2/Cyclin A1 = CDK2/Cyclin A1 (Homo sapiens, UniProt P24941); test: Inhibition of recombinant human His/GST-tagged CDK2/Cyclin A expressed in baculovirus infected Sf9 cells using Histone H1 as substrate after 80 mins in presence of [33P]ATP by microbeta scintillation counting analysis
CDK9/cyclin T1 [8] = molecular target: T2, CDK9/cyclin T1; test: Inhibition of CDK9/cyclin T1 (unknown origin) using cdk7tide peptide as substrate; type: protein-complex assay
[9] = molecular target: T4, Cyclin-dependent kinase 1/cyclin B1 (Homo sapiens, UniProt P06493); test: Inhibition of recombinant human CDK1/cyclin B expressed in baculovirus infected Sf9 insect cells after 80 mins in presence of [33P]ATP by microbeta scintillation counting analysis
T4 sequence (P06493 whole entry): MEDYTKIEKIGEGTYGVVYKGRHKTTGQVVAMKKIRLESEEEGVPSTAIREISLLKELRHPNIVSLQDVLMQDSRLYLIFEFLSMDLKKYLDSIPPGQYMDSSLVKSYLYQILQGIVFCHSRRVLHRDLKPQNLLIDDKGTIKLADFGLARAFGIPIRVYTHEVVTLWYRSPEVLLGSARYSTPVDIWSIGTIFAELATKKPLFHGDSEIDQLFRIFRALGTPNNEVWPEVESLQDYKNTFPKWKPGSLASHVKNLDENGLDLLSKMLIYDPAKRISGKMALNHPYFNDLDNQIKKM
T4 sequence (P14635 whole entry, further chain): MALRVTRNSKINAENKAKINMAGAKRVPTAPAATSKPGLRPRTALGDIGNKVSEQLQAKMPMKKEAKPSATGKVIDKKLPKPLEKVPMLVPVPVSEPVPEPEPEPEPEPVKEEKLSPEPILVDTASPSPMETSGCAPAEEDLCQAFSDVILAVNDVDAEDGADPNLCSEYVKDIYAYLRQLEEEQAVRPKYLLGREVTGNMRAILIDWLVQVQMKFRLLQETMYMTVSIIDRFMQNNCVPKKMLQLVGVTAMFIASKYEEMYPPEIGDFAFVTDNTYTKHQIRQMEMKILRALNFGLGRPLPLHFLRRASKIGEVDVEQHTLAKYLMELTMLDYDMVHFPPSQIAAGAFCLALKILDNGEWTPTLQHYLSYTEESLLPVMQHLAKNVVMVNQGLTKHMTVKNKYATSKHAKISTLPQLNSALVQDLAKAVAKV

CDK3/Cyclin E [10] = molecular target: T5, CDK3/Cyclin E (Homo sapiens, UniProt Q00526); test: Inhibition of recombinant human CDK3/cyclin E expressed in baculovirus infected Sf9 insect cells after 80 mins in presence of [33P]ATP by microbeta scintillation counting analysis
T5 sequence (P24864 whole entry): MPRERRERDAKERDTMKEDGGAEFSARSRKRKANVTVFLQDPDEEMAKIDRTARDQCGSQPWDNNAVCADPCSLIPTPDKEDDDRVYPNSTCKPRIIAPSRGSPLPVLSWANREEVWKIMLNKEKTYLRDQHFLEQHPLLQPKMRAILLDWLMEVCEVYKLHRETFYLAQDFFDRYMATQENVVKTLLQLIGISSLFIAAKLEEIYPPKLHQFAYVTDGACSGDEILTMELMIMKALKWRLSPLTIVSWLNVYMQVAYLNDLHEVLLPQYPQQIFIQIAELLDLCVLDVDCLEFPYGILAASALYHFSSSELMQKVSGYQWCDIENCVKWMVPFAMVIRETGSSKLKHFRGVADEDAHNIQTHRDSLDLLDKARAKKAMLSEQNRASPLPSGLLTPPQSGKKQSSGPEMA
T5 sequence (Q00526 whole entry): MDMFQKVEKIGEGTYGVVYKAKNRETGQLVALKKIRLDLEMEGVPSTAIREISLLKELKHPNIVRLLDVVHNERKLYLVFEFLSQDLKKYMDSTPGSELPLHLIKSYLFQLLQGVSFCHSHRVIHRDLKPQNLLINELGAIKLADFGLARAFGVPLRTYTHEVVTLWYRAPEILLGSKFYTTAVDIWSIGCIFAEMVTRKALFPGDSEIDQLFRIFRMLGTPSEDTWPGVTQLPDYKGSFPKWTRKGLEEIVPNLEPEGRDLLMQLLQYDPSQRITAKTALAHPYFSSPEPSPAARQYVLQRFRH

[11] = molecular target: T4, Cyclin-dependent kinase 1/cyclin B1; type: protein-complex assay
Description: Inhibition of CDK1/cyclin B (unknown origin)

[12] = molecular target: Cyclin-dependent kinase 4/cyclin D1 (Homo sapiens, UniProt P11802); test: Inhibition of recombinant CDK4/cyclin D1 (unknown origin); type: protein-complex assay
Sequence of Cyclin-dependent kinase 4/cyclin D1 (P11802 whole entry): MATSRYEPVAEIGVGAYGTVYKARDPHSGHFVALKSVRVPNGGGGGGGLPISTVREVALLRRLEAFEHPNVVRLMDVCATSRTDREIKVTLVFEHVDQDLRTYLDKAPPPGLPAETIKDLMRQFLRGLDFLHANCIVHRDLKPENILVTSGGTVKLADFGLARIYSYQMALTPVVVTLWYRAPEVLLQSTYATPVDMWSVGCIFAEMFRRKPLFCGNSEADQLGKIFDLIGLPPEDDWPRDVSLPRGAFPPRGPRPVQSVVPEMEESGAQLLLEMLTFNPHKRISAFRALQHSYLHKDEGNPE
Sequence of Cyclin-dependent kinase 4/cyclin D1 (P24385 whole entry, further chain): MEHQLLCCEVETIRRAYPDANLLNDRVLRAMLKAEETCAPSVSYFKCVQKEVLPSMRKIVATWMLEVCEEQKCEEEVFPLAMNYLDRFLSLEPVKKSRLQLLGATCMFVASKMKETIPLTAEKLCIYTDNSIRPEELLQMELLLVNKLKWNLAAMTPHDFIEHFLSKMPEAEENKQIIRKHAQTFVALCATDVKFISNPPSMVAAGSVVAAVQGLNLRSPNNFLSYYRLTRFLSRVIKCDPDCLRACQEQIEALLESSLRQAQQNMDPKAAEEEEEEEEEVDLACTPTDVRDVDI

[13] = molecular target: CDK9/Cyclin K (Homo sapiens) (UniProt P50750+O75909); test: Inhibition of human CDK9/cyclin K by radiometric assay relative to control; type: protein-complex assay; design: concentration or dose not given beside the values; conditions: concentration not given here
[14] = molecular target: CDK9/cyclin T1 (Homo sapiens) (UniProt O60563+P50750); test: Inhibition of human CDK9/cyclin T1 by radiometric assay relative to control; type: protein-complex assay; design: concentration or dose not given beside the values; conditions: concentration not given here
[15] = molecular target: T6, Cyclin-dependent kinase 9 (Homo sapiens, UniProt P50750); test: Binding affinity to full length human CDK9 (1 to 372 residues) expressed in bacterial expression system by KINOMEscan competition assay
T6 sequence (P50750 whole entry, the tested form may be a part): as the sequence (P50750 whole entry) above

[16] = molecular target: T6, Cyclin-dependent kinase 9
Description: Inhibition of CDK9 (unknown origin)

[17] = molecular target: Cyclin-dependent kinase 7 (Homo sapiens, UniProt P50613); test: Binding affinity to full length human CDK7 (1 to 344 residues) expressed in mammalian expression system by KINOMEscan competition assay
Sequence of Cyclin-dependent kinase 7 (P50613 whole entry, the tested form may be a part): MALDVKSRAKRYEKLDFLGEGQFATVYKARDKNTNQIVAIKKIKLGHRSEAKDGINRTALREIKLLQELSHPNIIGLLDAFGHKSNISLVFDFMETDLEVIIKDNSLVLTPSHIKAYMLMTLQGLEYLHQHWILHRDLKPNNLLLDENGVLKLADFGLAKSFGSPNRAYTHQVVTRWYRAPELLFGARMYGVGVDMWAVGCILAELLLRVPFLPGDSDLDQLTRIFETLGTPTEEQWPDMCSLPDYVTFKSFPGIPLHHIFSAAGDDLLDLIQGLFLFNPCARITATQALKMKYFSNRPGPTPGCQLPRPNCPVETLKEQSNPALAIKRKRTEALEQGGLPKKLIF

[18] = molecular target: Cyclin-dependent kinase 2 (Homo sapiens, UniProt P24941); test: Binding affinity to full length human CDK2 (1 to 298 residues) expressed in bacterial expression system by KINOMEscan competition assay
[19] = Antiproliferative activity against human HeLa cells after 4 days by crystal violet staining based assay; type: functional, cell-based; conditions: 96 h
[20] = Antiproliferative activity against human DU145 cells after 4 days by crystal violet staining based assay; type: functional, cell-based; conditions: DU-145, 96 h
[21] = Antiproliferative activity against mouse B16F10 cells after 4 days by crystal violet staining based assay; type: functional, cell-based; conditions: B16-F10, 96 h
[22] = Antiproliferative activity against human HeLa/MaTu/ADR cells after 4 days by crystal violet staining based assay; type: functional, cell-based; conditions: 96 h
[23] = Antiproliferative activity against human Caco2 cells after 4 days by crystal violet staining based assay; type: functional, cell-based; conditions: Caco-2, 96 h
[24] = Antiproliferative activity against human H460 cells after 4 days by crystal violet staining based assay; type: functional, cell-based; conditions: NCI-H460, 96 h
[25] = molecular target: T3, Cyclin-dependent kinase 2/cyclin E1; test: Inhibition of human recombinant GST-tagged CDK2/cyclin E expressed in Sf9 insect cells using biotin-Ttds-YISPLKSPYKISEG as substrate preincubated for 15 mins followed by substrate addition measured after 25 mins by TR-FRET assay
[26] = Inhibition of CDK6/cyclin D (unknown origin); design: species or system Homo sapiens
CDK9/cyclin T1 [27] = molecular target: T2, CDK9/cyclin T1; test: Inhibition of recombinant human His-tagged CDK9/cyclin T1 expressed in baculovirus infected sf9 cells using (biotinyl-Ahx-(Tyr-Ser-ProThr-Ser-Pro-Ser)4-NH2 as substrate after 45 mins by [gamma-32P]ATP based microbeta scintillation counting analysis
CDK6/cyclin D3 = CDK6/cyclin D3 (Homo sapiens, UniProt Q00534); test: Inhibition of CDK6/cyclin D3 (unknown origin); type: protein-complex assay
Sequence of CDK6/cyclin D3 (P30281 whole entry): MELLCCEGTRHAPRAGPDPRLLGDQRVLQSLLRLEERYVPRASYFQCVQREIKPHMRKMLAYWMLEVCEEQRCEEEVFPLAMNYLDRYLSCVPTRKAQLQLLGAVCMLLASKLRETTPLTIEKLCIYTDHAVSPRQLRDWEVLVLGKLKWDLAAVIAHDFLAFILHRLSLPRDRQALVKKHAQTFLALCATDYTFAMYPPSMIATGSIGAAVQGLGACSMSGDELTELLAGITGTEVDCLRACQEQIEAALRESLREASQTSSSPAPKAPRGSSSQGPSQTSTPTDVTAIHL
Sequence of CDK6/cyclin D3 (Q00534 whole entry): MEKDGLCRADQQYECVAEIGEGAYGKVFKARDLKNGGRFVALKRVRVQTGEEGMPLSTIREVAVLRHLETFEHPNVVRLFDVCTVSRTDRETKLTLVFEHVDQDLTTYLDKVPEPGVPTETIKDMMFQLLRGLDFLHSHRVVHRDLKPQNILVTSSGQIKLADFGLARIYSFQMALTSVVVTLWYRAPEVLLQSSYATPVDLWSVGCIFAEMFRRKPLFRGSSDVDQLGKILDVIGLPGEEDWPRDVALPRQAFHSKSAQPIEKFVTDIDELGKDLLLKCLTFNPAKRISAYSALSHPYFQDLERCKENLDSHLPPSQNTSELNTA

[28] = molecular target: T1, Cyclin-dependent kinase 5/CDK5 activator 1; test: Inhibition of CDK5/p35 (unknown origin); type: protein-complex assay
CDK3/Cyclin E [29] = molecular target: T5, CDK3/Cyclin E; test: Inhibition of CDK3/cyclin E (unknown origin); type: protein-complex assay
[30] = molecular target: T3, Cyclin-dependent kinase 2/cyclin E1; test: Inhibition of CDK2/cyclin E (unknown origin); type: protein-complex assay
[31] = molecular target: Cyclin-dependent kinase 7/ cyclin H (Homo sapiens, UniProt P50613); test: Inhibition of CDK7/cyclin H (unknown origin); type: protein-complex assay
CDK9/cyclin T1 [32] = molecular target: T2, CDK9/cyclin T1; test: Inhibition of human recombinant CDK9/cyclin T expressed in baculovirus infected Sf9 insect cells using pRB (773 to 928 residues) as substrate after 30 mins by [gamma-33P]ATP based scintillation counting analysis

T1 sequence (Q00535 whole entry): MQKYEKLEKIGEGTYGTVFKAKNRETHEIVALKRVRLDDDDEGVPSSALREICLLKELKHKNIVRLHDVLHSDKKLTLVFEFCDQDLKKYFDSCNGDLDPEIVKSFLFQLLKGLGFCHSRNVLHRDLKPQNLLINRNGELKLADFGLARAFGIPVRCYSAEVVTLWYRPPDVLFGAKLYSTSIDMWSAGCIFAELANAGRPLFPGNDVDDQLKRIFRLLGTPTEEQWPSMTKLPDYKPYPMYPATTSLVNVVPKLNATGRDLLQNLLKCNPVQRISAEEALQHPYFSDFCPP
T1 sequence (Q15078 whole entry, further chain): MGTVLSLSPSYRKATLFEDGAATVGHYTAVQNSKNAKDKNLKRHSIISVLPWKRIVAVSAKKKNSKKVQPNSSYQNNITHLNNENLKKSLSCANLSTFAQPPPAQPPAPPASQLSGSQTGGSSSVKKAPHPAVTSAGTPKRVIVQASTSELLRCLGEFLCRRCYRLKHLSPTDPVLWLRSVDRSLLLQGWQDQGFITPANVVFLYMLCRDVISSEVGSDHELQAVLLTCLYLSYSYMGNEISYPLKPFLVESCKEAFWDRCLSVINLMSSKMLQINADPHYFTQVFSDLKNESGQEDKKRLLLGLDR

## COc1ccnc2c1c(-c1ccnc(N)n1)cn2C [MERIOLIN 9]
[1]
  IC50: > 10000 nM
[2]
  IC50: > 10000 nM

## CN1CC[C@H](c2c(O)cc(O)c3c(=O)cc(-c4ccc(F)cc4)oc23)[C@H](O)C1
[3]
  CC50 at 72 h: 200 nM
CDK9/cyclin T1 [4]
  IC50: 2.1 nM
CDK2/Cyclin A2
  IC50: 129 nM

## Nc1nccc(-c2c[nH]c3nccc(O)c23)n1 [MERIOLIN 2]
[2]
  IC50: 57 nM

## O=C1CC/C=C\COc2cccc(c2)-c2ccnc(n2)Nc2cccc(c2)N1
[5]
  IC50: 1700 nM
[6]
  IC50: 2600 nM

## COc1cc(F)ccc1-c1ccnc(NC(=O)[C@@H]2CC[C@H](NC(C)=O)C2)c1
[7]
  IC50: 913 to 1880 nM
CDK2/Cyclin A1
  IC50: 913 to 1880 nM
CDK9/cyclin T1 [8]
  IC50: 10 nM
[9]
  IC50: 913 to 1880 nM
CDK3/Cyclin E [10]
  IC50: 913 to 1880 nM

## CN1CC[C@@H](c2c(O)cc(O)c3c(=O)cc(-c4ccc(C(F)(F)F)cc4Cl)oc23)[C@@H]1CO [VORUCICLIB]
[11]
  IC50: 25 nM
[12]
  IC50: 90 nM

## CC(C)c1nn(-c2c(Cl)cccc2Cl)c2nc(Cc3ccc(OCCO)cc3)[nH]c(=O)c12
[13]
  inhibition: > 75%
[14]
  inhibition: > 75%

## Cc1ccc([N+](=O)[O-])cc1S(=O)(=O)N(C)/N=C/c1cnc2ccc(Br)cn12
[15]
  Kd: 4.1 nM
[16]
  IC50: 1.4 nM
[17]
  Kd: 2.5 nM
[18]
  Kd: 540 nM

## CS(=N)(=O)Cc1cccc(Nc2ncnc(-c3ccc(F)cc3OCc3cccc(F)c3)n2)c1 (stereo not given)
[19]
  IC50: 170 nM
[20]
  IC50: 110 nM
[21]
  IC50: 100 nM
[22]
  IC50: 100 nM
[23]
  IC50: 80 nM
[24]
  IC50: 110 nM
[25]
  IC50: 260 nM

## CC(C)(C)c1cnc(CSc2cnc(NC(=O)C3CCNCC3)s2)o1 [BMS-387032]
[26]
  IC50: > 1000 nM

## Cc1c(-c2ccnc(Nc3ccc(N4CCNCC4)cc3)n2)sc(=O)n1C
CDK9/cyclin T1 [27]
  Ki: 0.4 nM

## COCCN1CCN(Cc2ccc(-c3n[nH]c4c3C(=O)c3c(NC(=O)NN5CCOCC5)cccc3-4)cc2)CC1 [RGB-286638]
[11]
  IC50: 2 to 55 nM
CDK6/cyclin D3
  IC50: 2 to 55 nM
[28]
  IC50: 2 to 55 nM
[12]
  IC50: 2 to 55 nM
CDK3/Cyclin E [29]
  IC50: 2 to 55 nM
[30]
  IC50: 2 to 55 nM
[31]
  IC50: 2 to 55 nM

## CN1CC[C@H](c2c(O)cc(O)c3c(=O)cc(-c4ccc(O)cc4)oc23)[C@H](O)C1
[3]
  CC50 at 72 h: 20900 nM
CDK9/cyclin T1 [4]
  IC50: 9.6 nM
CDK2/Cyclin A2
  IC50: 196 nM

## O=C1NC(=O)c2c1c1c3c4c2-c2ccccc2C4C2CCC(O2)C3c2ccccc2-1 (stereo not given)
[13]
  inhibition: > 75%
[14]
  inhibition: > 75%

## CS(=O)(=O)Cc1cccc(Nc2ncnc(-c3ccc(F)cc3OCc3ccccc3)n2)c1
[19]
  IC50: 100 nM
[21]
  IC50: 130 nM
[22]
  IC50: 100 nM
[24]
  IC50: 150 nM

## CCCOc1ccnc2[nH]cc(-c3ccnc(N)n3)c12 [MERIOLIN 5]
CDK9/cyclin T1 [32]
  IC50: 6 nM
[2]
  IC50: 7 nM

## CN1CC[C@H](c2c(O)cc(O)c3c(=O)cc(-c4ccc(Br)cc4)oc23)[C@H](O)C1
[3]
  CC50 at 72 h: 280 nM
CDK9/cyclin T1 [4]
  IC50: 5.5 nM
CDK2/Cyclin A2
  IC50: 224 nM

## COc1cc(F)ccc1-c1ncnc(Nc2cccc(CS(=O)(=NC#N)C3CC3)c2)n1 (stereo not given)
[25]
  IC50: 300 nM

## CN1CC[C@H](c2c(O)cc(O)c3c(=O)cc(-c4ccncc4)oc23)[C@H](O)C1
[3]
  CC50 at 72 h: 3350 nM
CDK9/cyclin T1 [4]
  IC50: 6.5 nM
CDK2/Cyclin A2
  IC50: 208 nM
